The subject of one data set is Candida albicans A26. Put plainly: in vitro antifungal activity, Candida albicans (MIC). Format: cell-based. The note with it: 35° C., 48 hours, RPMI 1640 plus 10% fetal calf serum, 95-100% inhibition of growth; for MIC: read-out: minimum inhibitory concentration (MIC), C.a. How it is done: (§1) The antifungal activity was assayed in vitro against Candida abicans A26, Trichophyton mentagrophytes CDC27, and Aspergillus flavus M152. The inocula, previously frozen under liquid nitrogen in a lactose, glycerol and water solution, were standardized by counting spores with a hemocytometer. Final concentrations (C. albicans, 1×10^5 cells/m; T. mentagrophytes, 1×10^6 cells/ml; A. flavus, 1×10^5 cells/ml) in RPMI 1640 plus 10% fetal calf serum were added to each of the 96 wells of a microtiter plate (100 μl/well).The compounds to be tested were solubilized in either water or ethanol and added to the microtiter wells in serial dilutions to give final concentrations in the range 0.039-20 μg/ml. The plates were incubated at 35° C. for 48 hours. The minimum inhibitory concentration (MIC) values were determined as the highest dilution showing 95-100% inhibition of growth.
(§2) ^a Minimum inhibitory concentration expressed in μg/ml
^b C.a. means Candida albicans A26

Another data set has as its system Aspergillus flavus M152. Put plainly: in vitro antifungal activity, Aspergillus flavus (MIC). In kind it is cell-based. The note with it: 35° C., 48 hours, RPMI 1640 plus 10% fetal calf serum, 95-100% inhibition of growth; for MIC: read-out: minimum inhibitory concentration (MIC), A.f. On the procedure: as §1, §2
^c A.f. means Aspergillus flavus M152

Data set [1] relates to Trichophyton mentagrophytes CDC27. The data set can be described thus: in vitro antifungal activity, Trichophyton mentagrophytes (MIC). The conditions noted are these: 35° C., 48 hours, RPMI 1640 plus 10% fetal calf serum, 95-100% inhibition of growth; for MIC: read-out: minimum inhibitory concentration (MIC), T.m. Format: cell-based. How it is done: as §1, §2
^d T.m. means Trichophyton mentagrophytes CDC27

The test system of data set [2] is thromboplastin clotting time in human plasma. Put plainly: prothrombin time test (thromboplastin clotting time in human plasma). The note with it: 37° C., human plasma. Format: biochemical. How it is done: Briefly, to 0.1 ml of each of human plasma, normal saline and thromboplastin was added 0.03 ml of the test compound of the present invention (2 mg/ml in 50 percent methanol). The clotting time was measured at 37° C. with a Fibrometer.
^a Expressed in seconds
^b Concentration of compound tested in micrograms per milliliter of […]

The nature of the next data set: solubility in methanol. Format: physicochemical.
The mark [3] stands for this setting: 45 micrograms per milliliter of plasma.
Where [4] appears, read: 22 micrograms per milliliter of plasma.
Where [5] appears, read: 90 micrograms per milliliter of plasma.
[6] abbreviates: 180 micrograms per milliliter of plasma.

Counter-ions that a name gives are not always drawn.

For `CC(CCc1ccc(OCCC2CCCCC2)cc1)NC1CCCC(C(F)(F)F)C1` (stereo not drawn) [Example 39, 4-(2-Cyclohexylethoxy)-α-methyl-N-[3-(trifluoromethyl)-cyclohexyl]benzenepropanamine hydrochloride], the MIC in the data set on Candida albicans A26 is 5 µg/mL; with Aspergillus flavus M152 it was more than 20 µg/mL; in data set [1], more than 20 µg/mL. In addition, in data set [2] (setting [3]), the plasma prothrombin time was found to be 90 s.

As to `CCCCCCCCOc1ccc(CC(CN)c2ccccc2)cc1` (stereo not drawn) [Example 2, 4-(Octyloxy)-β-phenylbenzenepropanamine], the MIC was 20 µg/mL in the data set with Candida albicans A26, 10 µg/mL with Aspergillus flavus M152 and 20 µg/mL in data set [1]. Moreover, the plasma prothrombin time in data set [2] (setting [4]) was 38 s; in data set [2] (setting [3]), 79 s; in data set [2] (setting [5]), more than 300 s; in data set [2] (setting [6]), more than 300 s.

As for `CCCCCCOc1ccc(CC(CN)c2ccc(F)cc2)cc1` (stereo not drawn) [Example 26, 4(Hexyloxy)-β-(4-fluorophenyl)benzenepropanamine], the MIC in the data set on Candida albicans A26 stood at 10 µg/mL; in the data set with Aspergillus flavus M152, 5 µg/mL; in data set [1], 10 µg/mL. For the same compound, the figures for the plasma prothrombin time in data set [2] (setting [3]), in data set [2] (setting [5]) and in data set [2] (setting [6]) were 29 s, 67 s and 500 s, respectively.

As to `Cl.NCC(Cc1cccc2ccccc12)c1ccccc1` (stereo not drawn) [Example 22, β-Phenyl-1-naphthalenepropanamine hydrochloride], the figures for the MIC (with Candida albicans A26; in the data set with Aspergillus flavus M152; in data set [1]) were 20 µg/mL, 10 µg/mL and 10 µg/mL, respectively. The compound further showed a plasma prothrombin time in data set [2] (setting [6]) of more than 300 s.

Consider `CCCCCCCOc1ccc(CC(CN)c2ccc(OC)cc2)cc1` (stereo not drawn) [Example 21, 4-(Heptyloxy)-β-(4-methoxy)phenylbenzenepropanamine], for which, in the data set “solubility in methanol”, the solubility in methanol result was “insoluble”.

On to `CCCCCOc1ccc(CC(CN)c2ccccc2)cc1.Cl` (stereo not drawn) [Example 4, 4-(Pentyloxy)-β-phenylbenzenepropanamine hydrochloride], for which the MIC stood at 10 µg/mL with Candida albicans A26, 5 µg/mL in the data set with Aspergillus flavus M152 and 5 µg/mL in data set [1]. Moreover, the plasma prothrombin time in data set [2] (setting [3]) was 37 s; in data set [2] (setting [5]) it was 91 s; in data set [2] (setting [6]) it was more than 300 s.

Regarding `CCCCOc1ccc(CCC(C)N(C)C)cc1` (stereo not drawn) [Example 41, 4-Butoxy-N,N,α-trimethylbenzenepropanamine hydrochloride], the figures for the MIC (in the data set with Candida albicans A26; in the data set on Aspergillus flavus M152; in data set [1]) were 0.156 µg/mL, 1.25 µg/mL and 0.078 µg/mL, respectively. Also, the plasma prothrombin time turned out to be 21 s in data set [2] (setting [3]), 24 s in data set [2] (setting [5]) and 41 s in data set [2] (setting [6]).

For the compound `CC(CCc1ccc(OCc2ccc(Cl)cc2Cl)cc1)N(C)C` (stereo not drawn) [Example 64, N,N,α-Trimethyl-4-(2,4-dichlorophenyl)methoxy]benzenepropanamine hydrochloride], the MIC worked out at 20 µg/mL in the data set with Candida albicans A26, 5 µg/mL in the data set with Aspergillus flavus M152 and 5 µg/mL in data set [1].

Consider `CC(CCc1ccc(OCc2cccc(F)c2)cc1)N(C)C` (stereo not drawn) [Example 63, N,N,α-Trimethyl-4-[(3-fluorophenyl)methoxy]benzenepropanamine hydrochloride], for which the values for the MIC (in the data set on Candida albicans A26; in the data set with Aspergillus flavus M152; in data set [1]) were 0.625 µg/mL, 5 µg/mL and 1.25 µg/mL, respectively.

Turning to `CC(CCc1ccc(OCCn2cncn2)cc1)N(C)C` (stereo not drawn) [Example 62, N,N,α-Trimethyl-4-[2-(1H-1,2,4-triazol-1-yl)ethoxy]benzenepropanamine], the MIC in the data set with Candida albicans A26 was determined as 10 µg/mL; in the data set with Aspergillus flavus M152, 20 µg/mL; in data set [1], 10 µg/mL.

Take `CCCCCCOc1ccc(CC(CN)c2ccccc2)cc1` (stereo not drawn) [Example 1, 4-(Hexyloxy)-β-phenylbenzenepropanamine]: the MIC (with Candida albicans A26; in the data set with Aspergillus flavus M152; in data set [1]) was 10 µg/mL throughout. Besides, the plasma prothrombin time in data set [2] (11 micrograms per milliliter of plasma) was 32 s; in data set [2] (setting [4]) it was 43 s; in data set [2] (setting [3]) it was 91 s; in data set [2] (setting [5]), more than 300 s; in data set [2] (setting [6]), more than 300 s.

As for `COc1ccc(CC(c2ccccc2)C(C)N)cc1OCC1CCCCC1` (stereo not drawn) [Example 71, 3-(Cyclohexylmethoxy)-4-methoxy-α-methyl-β-phenylbenzenepropanamine hydrochloride], the values for the MIC (in the data set with Candida albicans A26; in the data set on Aspergillus flavus M152; in data set [1]) were 20 µg/mL, 10 µg/mL and 10 µg/mL, respectively.

As for `CCCCOc1ccc(CCC(CC)N(C)C)cc1` (stereo not drawn) [Example 70, 4-Butoxy-α-ethyl-N,N-dimethylbenzenepropanamine hydrochloride], the MIC worked out at 0.156 µg/mL in the data set with Candida albicans A26, 10 µg/mL in the data set with Aspergillus flavus M152 and 0.156 µg/mL in data set [1].

In the case of “4-(2-Butenyloxy)-N,N,α-trimethylbenzenepropanamine hydrochloride [Example 56]”, the “minimum inhibitory concentration (MIC), C.a.” value in the data set with Candida albicans A26 was determined as 0.625 µg/mL. Besides, the “minimum inhibitory concentration (MIC), A.f.” value with Aspergillus flavus M152 worked out at 5 µg/mL. Also, the “minimum inhibitory concentration (MIC), T.m.” value in data set [1] was found to be 0.312 µg/mL.

With `CSCCOc1ccc(CCC(C)N(C)C)cc1` (stereo not drawn) [Example 57, 4-(2-Methylthioethoxy)-N,N,α-trimethylbenzenepropanamine hydrochloride], the MIC in the data set with Candida albicans A26 was 1.25 µg/mL; with Aspergillus flavus M152, 20 µg/mL; in data set [1], 0.312 µg/mL.

As for `CCCCCCOc1ccc(CC(CN)c2ccc(OC)c(OC)c2)cc1` (stereo not drawn) [Example 16, .varies.-(Hexyloxy)-β-(3,4-dimethoxy)phenylbenzenepropanamine hydrochloride], the MIC in the data set with Candida albicans A26 stood at 20 µg/mL; in the data set with Aspergillus flavus M152, 10 µg/mL; in data set [1], 10 µg/mL. The plasma prothrombin time in data set [2] (setting [4]) turned out to be 27 s; in data set [2] (setting [3]) it was 57 s; in data set [2] (setting [5]) it was 81 s; in data set [2] (setting [6]), 235 s.

For the compound `CC(CCc1ccc(OCc2ccc(C(F)(F)F)cc2)cc1)N(C)C` (stereo not drawn) [Example 65, N,N,α-Trimethyl-4-[[4-(trifluoromethyl)phenyl]methoxy]-benzenepropanamine hydrochloride], the MIC was determined as 20 µg/mL in the data set on Candida albicans A26, 10 µg/mL with Aspergillus flavus M152 and 5 µg/mL in data set [1].

For `CC(CCc1ccc(OCCCC#N)cc1)N(C)C` (centres unmarked) [Example 59, 4-8 4-[3-(Dimethylamino)butyl]phenoxy]butanenitrile hydrochloride], the MIC came out at 2.5 µg/mL in the data set on Candida albicans A26, 20 µg/mL with Aspergillus flavus M152 and 20 µg/mL in data set [1].

As to `CC(CCc1ccc(OC2CCCC2)cc1)NCCN1CCOCC1` (centres unmarked) [Example 47, N-[3-[4-(Cyclopentyloxy)phenyl]-1-methylpropyl]-4-morpholineethanamine dihydrochloride], the MIC amounted to 10 µg/mL with Candida albicans A26, 10 µg/mL with Aspergillus flavus M152 and 20 µg/mL in data set [1].

For the compound `CCCCOc1ccc(CC(CN)c2ccccc2)cc1.Cl` (stereo not drawn) [Example 6, 4-(Butyloxy)-β-phenylbenzenepropanamine hydrochloride], the MIC stood at 10 µg/mL with Candida albicans A26, 5 µg/mL with Aspergillus flavus M152 and 5 µg/mL in data set [1]. In addition, the plasma prothrombin time was 20 s in data set [2] (setting [4]), 26 s in data set [2] (setting [3]), 46 s in data set [2] (setting [5]) and 83 s in data set [2] (setting [6]).

These data come from patent US5135955A, “Propanamine derivatives” (Eli Lilly and Company, priority 1989, dated 1992).
